Test results as given in the supplement of paper PMC10307832.

Compound: O=C(CCCCCCC(=O)Nc1ccccc1)NO [Vorinostat]
Experiment: relative viability (nuclei count vs DMSO), 5 days (fraction); higher = more cells survive
How it was run: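 Acceptance criteria were a control CV below 25% and at least one doubling per plate. Lung cancer cell lines in 1536-well plates got five library-drug doses (not always all listed) √10 apart by pinning and were left 5 days with no medium change. Viability divides treated-well nuclei by vehicle-well nuclei and is the median across plates. Nuclei were counted by MetaXpress from 4× Hoechst images.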

Row | Cell Line | relative viability (0.253 µM) | relative viability (0.8 µM) | relative viability (1 µM, anchor plate) | relative viability (2.53 µM) | relative viability (8 µM)
1 | HCC-827 | 1.15 | 1.12 | 0.882 | 0.934 | 0.416
2 | NCI-H2085 | 1.05 | 0.939 | 0.815 | 0.714 | 0.369
3 | NCI-H2405 | 1.05 | 1.17 | 1.01 | 0.57 | 0.144
4 | PC-14 | 1.25 | 0.886 | 0.725 | 0.171 | 0.051
5 | NCI-H1563 | 1.07 | 0.856 | – | 0.629 | 0.513
6 | NCI-H358 | 1.33 | 1.05 | 0.697 | 0.255 | 0.118
7 | NCI-H522 | 1.1 | 0.869 | 0.962 | 0.768 | 0.299
8 | NCI-H1755 | 1.08 | 1.01 | 0.735 | 0.566 | 0.292
9 | NCI-H2087 | 1.03 | 0.634 | 0.737 | 0.246 | 0.0956
10 | NCI-H1666 | 1.05 | 0.955 | 1.01 | 0.514 | 0.348
11 | 201T | 1.07 | 0.848 | 0.946 | 0.855 | 0.324
12 | NCI-H1944 | 0.927 | 0.707 | 0.57 | 0.341 | 0.21
13 | NCI-H2228 | 0.93 | 0.802 | 0.654 | 0.476 | 0.146
14 | NCI-H1395 | 0.91 | 0.919 | 0.834 | 0.631 | 0.387
15 | PC-3 [JPC-3] | 1.12 | 0.988 | 0.921 | 0.608 | 0.312
16 | NCI-H2170 | 1.08 | 0.969 | 0.847 | 0.539 | 0.158
17 | LCLC-97TM1 | 0.979 | 1.07 | 0.711 | 0.715 | 0.1
18 | HOP-62 | 1.2 | 0.882 | 0.679 | 0.528 | 0.113
19 | LXF-289 | 1.1 | 1.01 | 0.791 | 0.624 | 0.195

Row | Cell Line | relative viability (0.253 µM) | relative viability (0.8 µM) | relative viability (1 µM, anchor plate) | relative viability (2.53 µM) | relative viability (8 µM)
20 | NCI-H1792 | 0.965 | 0.762 | – | 0.371 | 0.108
21 | NCI-H647 | 1.16 | 0.731 | 0.539 | 0.199 | 0.0541
22 | LK-2 | 1.18 | 0.67 | 0.309 | 0.207 | 0.0969
23 | NCI-H650 | 0.939 | 0.792 | 0.457 | 0.481 | 0.158
24 | NCI-H1437 | 1.04 | 0.831 | 0.861 | 0.421 | 0.184
25 | NCI-H1915 | 1.12 | 0.878 | 0.524 | 0.514 | 0.123
26 | UMC-11 | 1.1 | 0.617 | 0.403 | 0.201 | 0.103
27 | NCI-H661 | 1.11 | 0.974 | 0.8 | 0.548 | 0.351
28 | A549 | 1.05 | 0.848 | – | 0.337 | 0.0442
29 | HCC-44 | 0.995 | 0.91 | 1.09 | 0.654 | 0.161
30 | NCI-H23 | 1.14 | 0.985 | 0.653 | 0.541 | 0.136
31 | NCI-H2126 | 1.03 | 0.875 | 0.769 | 0.655 | 0.257
32 | COR-L 105 | 1.42 | 0.858 | 0.868 | 0.501 | 0.237
33 | NCI-H727 | 1.11 | 0.813 | 1.19 | 0.514 | 0.31
34 | LOU-NH91 | 1.09 | 0.918 | 0.94 | 0.829 | 0.423
35 | RERF-LC-KJ | 1.04 | 0.911 | 0.698 | 0.405 | 0.246
36 | NCI-H2347 | 1.11 | 0.962 | 0.61 | 0.777 | 0.262
37 | ChaGo-K-1 | 1.09 | 0.858 | 0.759 | 0.761 | 0.343
38 | NCI-H1993 | 1.08 | 1 | 0.823 | 0.705 | 0.56
